Measured values published in ChEMBL document CHEMBL5678818, “Discovery of potent SOS1 inhibitors that block RAS activation via disruption of the RAS-SOS1 interaction” (Proc Natl Acad Sci U S A, 2019).

What was measured:
[1] = tested on: Tyrosine-protein kinase ABL1 (Homo sapiens), P00519 [Y253F]; assay: Inhibition of phosphorylated ABL1 Y253F mutant (unknown origin) assessed as residual activity at 1000 nM by KINOMEscan analysis relative to control
[2] = target: T1, Cyclin-dependent kinase-like 2 (Homo sapiens) (UniProt Q92772); assay: Inhibition of CDKL2 (unknown origin) assessed as residual activity at 1000 nM by KINOMEscan analysis relative to control
T1 sequence (whole entry): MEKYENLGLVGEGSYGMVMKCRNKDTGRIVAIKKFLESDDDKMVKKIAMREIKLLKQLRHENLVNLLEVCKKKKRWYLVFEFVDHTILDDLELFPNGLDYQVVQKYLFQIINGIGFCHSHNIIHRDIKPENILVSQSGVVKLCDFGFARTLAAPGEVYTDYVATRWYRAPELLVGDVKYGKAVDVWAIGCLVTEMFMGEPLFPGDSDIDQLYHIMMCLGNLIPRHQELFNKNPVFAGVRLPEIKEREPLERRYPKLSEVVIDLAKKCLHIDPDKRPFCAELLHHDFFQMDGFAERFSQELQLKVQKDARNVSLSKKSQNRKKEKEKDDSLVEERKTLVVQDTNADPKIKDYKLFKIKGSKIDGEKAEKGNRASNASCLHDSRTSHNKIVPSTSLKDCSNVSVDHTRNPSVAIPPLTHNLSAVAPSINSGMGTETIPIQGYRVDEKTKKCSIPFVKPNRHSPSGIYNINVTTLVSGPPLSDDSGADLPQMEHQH

[3] = target: Epithelial discoidin domain-containing receptor 1 (Homo sapiens) (UniProt Q08345); assay: Inhibition of DDR1 (unknown origin) assessed as residual activity at 1000 nM by KINOMEscan analysis relative to control
Sequence of Epithelial discoidin domain-containing receptor 1 (Homo sapiens) (Q08345 whole entry, the tested form may be a part): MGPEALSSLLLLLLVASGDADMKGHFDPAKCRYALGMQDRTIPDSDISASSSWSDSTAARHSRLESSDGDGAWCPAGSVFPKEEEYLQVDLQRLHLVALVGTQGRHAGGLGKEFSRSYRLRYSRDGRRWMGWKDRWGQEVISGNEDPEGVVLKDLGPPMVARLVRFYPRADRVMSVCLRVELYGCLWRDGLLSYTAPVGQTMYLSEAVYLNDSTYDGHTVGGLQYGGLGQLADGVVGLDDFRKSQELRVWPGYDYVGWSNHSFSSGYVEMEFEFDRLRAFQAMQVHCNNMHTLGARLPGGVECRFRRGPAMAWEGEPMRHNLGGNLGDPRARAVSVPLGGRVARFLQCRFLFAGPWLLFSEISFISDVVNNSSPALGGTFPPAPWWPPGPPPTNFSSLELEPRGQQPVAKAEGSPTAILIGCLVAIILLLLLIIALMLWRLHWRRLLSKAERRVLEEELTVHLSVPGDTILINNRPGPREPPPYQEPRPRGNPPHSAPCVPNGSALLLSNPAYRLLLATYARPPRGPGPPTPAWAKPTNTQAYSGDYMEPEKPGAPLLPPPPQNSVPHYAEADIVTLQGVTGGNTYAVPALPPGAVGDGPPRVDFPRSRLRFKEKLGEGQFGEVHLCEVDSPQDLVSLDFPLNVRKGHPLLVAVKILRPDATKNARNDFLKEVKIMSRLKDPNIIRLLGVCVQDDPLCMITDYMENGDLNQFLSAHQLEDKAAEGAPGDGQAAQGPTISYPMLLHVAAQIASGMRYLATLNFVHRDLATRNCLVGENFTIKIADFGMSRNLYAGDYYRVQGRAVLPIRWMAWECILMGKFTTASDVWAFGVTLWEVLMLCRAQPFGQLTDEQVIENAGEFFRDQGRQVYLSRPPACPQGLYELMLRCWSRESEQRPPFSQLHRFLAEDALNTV

[4] = target: T2, Rhodopsin kinase GRK7 (Homo sapiens) (UniProt Q8WTQ7); assay: Inhibition of GRK7 (unknown origin) assessed as residual activity at 1000 nM by KINOMEscan analysis relative to control
T2 sequence (whole entry): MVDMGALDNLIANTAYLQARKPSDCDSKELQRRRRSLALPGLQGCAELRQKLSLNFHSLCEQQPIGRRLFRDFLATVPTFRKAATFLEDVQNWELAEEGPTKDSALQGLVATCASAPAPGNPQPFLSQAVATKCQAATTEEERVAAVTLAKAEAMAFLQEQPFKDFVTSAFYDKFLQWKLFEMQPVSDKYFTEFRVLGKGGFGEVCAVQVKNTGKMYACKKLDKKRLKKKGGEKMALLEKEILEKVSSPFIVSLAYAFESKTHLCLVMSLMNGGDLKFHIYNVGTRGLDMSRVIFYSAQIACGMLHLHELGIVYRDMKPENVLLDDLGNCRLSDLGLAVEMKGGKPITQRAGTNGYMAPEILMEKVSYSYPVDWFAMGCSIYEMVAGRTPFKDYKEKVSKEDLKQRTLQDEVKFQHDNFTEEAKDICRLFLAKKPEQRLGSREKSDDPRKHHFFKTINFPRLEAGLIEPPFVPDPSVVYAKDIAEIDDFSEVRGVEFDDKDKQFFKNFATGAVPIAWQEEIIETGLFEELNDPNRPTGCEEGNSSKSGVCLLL

[5] = target: Homeodomain-interacting protein kinase 2 (Homo sapiens) (UniProt Q9H2X6); assay: Inhibition of HIPK2 (unknown origin) assessed as residual activity at 1000 nM by KINOMEscan analysis relative to control
Sequence of Homeodomain-interacting protein kinase 2 (Homo sapiens) (Q9H2X6 whole entry, looked up): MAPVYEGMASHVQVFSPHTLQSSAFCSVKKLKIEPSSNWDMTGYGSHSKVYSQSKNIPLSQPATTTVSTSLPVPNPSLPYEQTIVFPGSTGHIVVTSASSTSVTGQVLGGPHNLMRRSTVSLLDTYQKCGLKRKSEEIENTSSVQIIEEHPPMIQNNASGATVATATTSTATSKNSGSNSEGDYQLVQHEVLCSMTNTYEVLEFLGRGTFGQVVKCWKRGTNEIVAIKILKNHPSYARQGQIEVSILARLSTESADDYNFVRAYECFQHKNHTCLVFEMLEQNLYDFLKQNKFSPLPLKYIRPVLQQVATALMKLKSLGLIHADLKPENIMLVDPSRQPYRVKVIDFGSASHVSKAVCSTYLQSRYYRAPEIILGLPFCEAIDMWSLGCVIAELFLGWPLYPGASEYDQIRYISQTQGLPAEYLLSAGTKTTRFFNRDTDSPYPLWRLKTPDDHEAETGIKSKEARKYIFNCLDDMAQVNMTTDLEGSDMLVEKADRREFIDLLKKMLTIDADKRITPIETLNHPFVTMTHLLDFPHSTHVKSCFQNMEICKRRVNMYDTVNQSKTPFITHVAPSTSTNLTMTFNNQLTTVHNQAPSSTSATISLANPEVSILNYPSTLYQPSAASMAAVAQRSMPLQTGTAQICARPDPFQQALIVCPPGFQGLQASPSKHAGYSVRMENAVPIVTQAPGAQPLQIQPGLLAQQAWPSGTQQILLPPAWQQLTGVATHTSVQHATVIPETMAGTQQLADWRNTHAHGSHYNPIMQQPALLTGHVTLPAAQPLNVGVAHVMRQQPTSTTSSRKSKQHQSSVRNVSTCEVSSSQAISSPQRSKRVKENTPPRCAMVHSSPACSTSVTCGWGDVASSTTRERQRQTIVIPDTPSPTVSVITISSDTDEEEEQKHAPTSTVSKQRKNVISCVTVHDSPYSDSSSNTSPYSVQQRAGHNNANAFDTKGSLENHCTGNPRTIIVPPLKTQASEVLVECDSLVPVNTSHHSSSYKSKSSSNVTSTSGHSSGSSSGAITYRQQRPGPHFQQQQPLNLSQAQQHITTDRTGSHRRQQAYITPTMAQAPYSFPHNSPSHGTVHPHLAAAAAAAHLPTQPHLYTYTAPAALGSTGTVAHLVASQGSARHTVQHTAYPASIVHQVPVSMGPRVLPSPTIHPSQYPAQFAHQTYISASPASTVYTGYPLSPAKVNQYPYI

[6] = target: Cyclin-dependent kinase 17 (Homo sapiens) (UniProt Q00537); assay: Inhibition of PCTK2 (unknown origin) assessed as residual activity at 1000 nM by KINOMEscan analysis relative to control
Sequence of Cyclin-dependent kinase 17 (Homo sapiens) (Q00537 whole entry, looked up, canonical isoform): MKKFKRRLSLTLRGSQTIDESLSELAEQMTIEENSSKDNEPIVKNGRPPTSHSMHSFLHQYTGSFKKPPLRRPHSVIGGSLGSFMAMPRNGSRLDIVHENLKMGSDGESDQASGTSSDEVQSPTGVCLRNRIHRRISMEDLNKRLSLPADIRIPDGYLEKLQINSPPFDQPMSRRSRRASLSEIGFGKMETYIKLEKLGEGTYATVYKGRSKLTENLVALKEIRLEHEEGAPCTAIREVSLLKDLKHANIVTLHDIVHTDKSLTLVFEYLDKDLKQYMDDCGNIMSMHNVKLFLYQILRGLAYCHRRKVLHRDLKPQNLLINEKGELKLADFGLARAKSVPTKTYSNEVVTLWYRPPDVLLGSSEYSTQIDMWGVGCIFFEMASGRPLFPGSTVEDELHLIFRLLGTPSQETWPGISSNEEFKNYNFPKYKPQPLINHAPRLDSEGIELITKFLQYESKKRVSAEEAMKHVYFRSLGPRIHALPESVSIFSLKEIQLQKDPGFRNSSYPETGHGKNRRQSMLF

[7] = target: Phosphatidylinositol 4,5-bisphosphate 3-kinase catalytic subunit alpha isoform (Homo sapiens) (UniProt P42336); assay: Inhibition of PIK3CA (unknown origin) assessed as residual activity at 1000 nM by KINOMEscan analysis relative to control
[8] = target: Proto-oncogene tyrosine-protein kinase Src (Homo sapiens) (UniProt P12931); assay: Inhibition of SRC (unknown origin) assessed as residual activity at 1000 nM by KINOMEscan analysis relative to control
Sequence of Proto-oncogene tyrosine-protein kinase Src (Homo sapiens) (P12931 2-536 limits assumed): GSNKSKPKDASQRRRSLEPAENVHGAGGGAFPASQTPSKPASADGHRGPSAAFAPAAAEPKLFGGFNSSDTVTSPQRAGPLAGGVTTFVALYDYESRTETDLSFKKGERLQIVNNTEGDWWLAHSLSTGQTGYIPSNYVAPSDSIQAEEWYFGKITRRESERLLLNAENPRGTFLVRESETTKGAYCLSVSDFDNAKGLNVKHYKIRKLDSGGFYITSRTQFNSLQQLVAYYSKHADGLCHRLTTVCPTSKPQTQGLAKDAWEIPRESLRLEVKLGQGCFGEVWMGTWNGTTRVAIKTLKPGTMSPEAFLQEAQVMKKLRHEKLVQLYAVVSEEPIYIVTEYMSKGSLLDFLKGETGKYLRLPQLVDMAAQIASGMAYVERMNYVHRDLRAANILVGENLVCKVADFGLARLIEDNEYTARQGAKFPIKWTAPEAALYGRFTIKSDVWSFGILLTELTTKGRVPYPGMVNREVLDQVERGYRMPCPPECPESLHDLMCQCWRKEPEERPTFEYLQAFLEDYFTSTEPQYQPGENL

[9] = target: TGF-beta receptor type-2 (Homo sapiens) (UniProt P37173); assay: Inhibition of TGFBR2 (unknown origin) assessed as residual activity at 1000 nM by KINOMEscan analysis relative to control
Sequence of TGF-beta receptor type-2 (Homo sapiens) (P37173 whole entry): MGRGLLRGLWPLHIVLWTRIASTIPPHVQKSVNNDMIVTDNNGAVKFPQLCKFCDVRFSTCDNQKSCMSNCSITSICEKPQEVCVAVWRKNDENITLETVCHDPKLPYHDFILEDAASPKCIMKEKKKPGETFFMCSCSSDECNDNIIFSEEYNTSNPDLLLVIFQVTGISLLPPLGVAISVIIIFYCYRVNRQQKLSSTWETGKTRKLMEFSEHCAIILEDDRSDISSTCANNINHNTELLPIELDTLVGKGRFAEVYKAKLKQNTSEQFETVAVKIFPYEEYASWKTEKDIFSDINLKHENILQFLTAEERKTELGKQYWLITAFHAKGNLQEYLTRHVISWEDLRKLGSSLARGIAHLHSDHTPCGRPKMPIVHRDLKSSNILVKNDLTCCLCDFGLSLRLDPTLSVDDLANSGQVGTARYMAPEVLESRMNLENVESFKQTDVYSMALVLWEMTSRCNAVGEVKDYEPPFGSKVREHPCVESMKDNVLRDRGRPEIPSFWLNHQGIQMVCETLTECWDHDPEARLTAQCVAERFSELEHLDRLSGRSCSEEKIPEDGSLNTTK

[10] = target: Serine/threonine-protein kinase WNK3 (Homo sapiens) (UniProt Q9BYP7); assay: Inhibition of WNK3 (unknown origin) assessed as residual activity at 1000 nM by KINOMEscan analysis relative to control
[11] = target: Serine/threonine-protein kinase OSR1 (Homo sapiens) (UniProt O95747); assay: Inhibition of OSR1 (unknown origin) assessed as residual activity at 1000 nM by KINOMEscan analysis relative to control
Sequence of Serine/threonine-protein kinase OSR1 (Homo sapiens) (O95747 whole entry, looked up): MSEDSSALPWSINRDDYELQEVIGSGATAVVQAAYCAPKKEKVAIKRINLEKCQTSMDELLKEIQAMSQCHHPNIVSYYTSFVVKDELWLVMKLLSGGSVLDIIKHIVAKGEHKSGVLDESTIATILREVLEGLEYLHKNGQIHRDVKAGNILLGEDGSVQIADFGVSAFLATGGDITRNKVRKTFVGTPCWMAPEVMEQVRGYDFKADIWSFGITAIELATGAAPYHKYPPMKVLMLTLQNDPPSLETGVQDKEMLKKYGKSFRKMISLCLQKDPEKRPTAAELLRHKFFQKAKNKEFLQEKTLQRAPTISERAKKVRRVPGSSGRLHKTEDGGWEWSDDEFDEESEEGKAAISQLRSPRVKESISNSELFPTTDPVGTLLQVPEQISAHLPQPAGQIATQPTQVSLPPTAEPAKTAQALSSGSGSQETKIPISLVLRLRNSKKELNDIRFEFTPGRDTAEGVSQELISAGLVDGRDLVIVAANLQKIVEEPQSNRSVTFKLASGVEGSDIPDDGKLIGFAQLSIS

[12] = target: Serine/threonine-protein kinase PAK 1 (Homo sapiens) (UniProt Q13153); assay: Inhibition of PAK1 (unknown origin) assessed as residual activity at 1000 nM by KINOMEscan analysis relative to control
Sequence of Serine/threonine-protein kinase PAK 1 (Homo sapiens) (Q13153 whole entry, looked up): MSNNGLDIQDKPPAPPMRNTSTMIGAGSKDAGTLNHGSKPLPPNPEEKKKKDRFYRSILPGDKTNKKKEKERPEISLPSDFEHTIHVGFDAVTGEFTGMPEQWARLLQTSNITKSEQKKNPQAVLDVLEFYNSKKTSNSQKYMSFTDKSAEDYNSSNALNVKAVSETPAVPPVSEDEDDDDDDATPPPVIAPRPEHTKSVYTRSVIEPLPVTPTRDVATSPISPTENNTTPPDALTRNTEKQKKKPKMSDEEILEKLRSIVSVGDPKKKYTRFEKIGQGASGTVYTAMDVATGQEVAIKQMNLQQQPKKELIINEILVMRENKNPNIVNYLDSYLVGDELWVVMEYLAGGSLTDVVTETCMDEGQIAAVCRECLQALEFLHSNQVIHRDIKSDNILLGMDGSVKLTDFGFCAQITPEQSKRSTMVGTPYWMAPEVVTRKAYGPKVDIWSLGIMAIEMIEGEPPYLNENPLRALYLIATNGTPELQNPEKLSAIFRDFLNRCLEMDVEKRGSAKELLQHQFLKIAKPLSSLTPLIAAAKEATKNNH

SMILES | Activity [1] [%] | Activity [2] [%] | Activity [3] [%] | Activity [4] [%] | Activity [5] [%] | Activity [6] [%] | Activity [7] [%] | Activity [8] [%] | Activity [9] [%] | Activity [10] [%] | Activity [11] [%] | Activity [12] [%]
COc1cc2nc(C)nc(N[C@H](C)c3cccc(-c4cn[nH]c4)c3)c2cc1OC | 92 | 81 | 95 | 100 | 100 | 83 | 96 | 97 | 93 | 93 | 93 | 62
COc1cc2ncnc(N[C@H](C)c3cccc4ccccc34)c2cc1OC | 79 | 97 | 100 | 81 | 98 | 100 | 73 | 96 | 100 | 99 | 97 | 90
